Assay [1] has as its target human SOS1 (loading of human K-Ras^G12C-GDP with fluorescent GTP-analog) (Homo sapiens, UniProt Q07889). The assay can be described thus: Biochemical assay 3: K-Ras^G12C activation assay by hSOS1 (HTRF). The settings on record: for inhibition at 20 µM: read-out: Assay 3 (KRAS-Activation by SOS no GTP) activity expressed as % inhibition at 20 μM. A general note: Time-resolved FRET reads energy transfer from a long-lived donor to a nearby acceptor.

Assay [2] addresses K-Ras^G12C : hSOS1 interaction (Homo sapiens, UniProt Q07889). As to the kind of experiment: Biochemical assay 1: K-Ras^G12C interaction assay with hSOS1 (HTRF). The settings on record: for inhibition at 20 µM: read-out: Assay 1 (KRAS-SOS Interaction) activity expressed as % inhibition at 20 μM. Type of assay: binding.
For assay [3], the target named is human SOS1 (nucleotide exchange of K-Ras^G12C) (Homo sapiens, UniProt Q07889). As to the kind of experiment: Biochemical assay 2: K-Ras^G12C activation assay by hSOS1 at high GTP concentration (HTRF). The settings on record: for inhibition at 20 µM: read-out: Assay 2 (KRAS-Activation by SOS high GTP) activity expressed as % inhibition at 20 μM.
Where [4] appears, read: no GTP, read-out: Assay 3 (KRAS-Activation by SOS no GTP) activity expressed as IC50.
Where [5] appears, read: read-out: Assay 1 (KRAS-SOS Interaction) activity expressed as IC50.
[6] abbreviates: high GTP, read-out: Assay 2 (KRAS-Activation by SOS high GTP) activity expressed as IC50.
The mark [7] stands for this setting: E-notation values, unit inferred, read-out: Assay 3 (KRAS-Activation) IC50.
Where [8] appears, read: E-notation values, unit inferred, read-out: Assay 1 (KRAS-SOS interaction) IC50.
The mark [9] stands for this setting: E-notation values, unit inferred, 50 μM GTP, read-out: Assay 2 (KRAS-Activation, high GTP) IC50.

Where two headings read alike, the source gives them in different places.

The term IC50 denotes the point on the concentration scale where inhibition reaches its midpoint. As to `COc1cc2nc(C)nc(N[C@H](C)c3ccc(C#N)cc3)c2cc1OC` [Example 189, 4-{(1R)-1-[(6,7-dimethoxy-2-methylquinazolin-4-yl)amino]ethyl}benzonitrile], the results for the IC50 in assay [1] (setting [4]), in assay [2] (setting [5]) and in assay [3] (setting [6]) were 2760 nM, 998 nM and 1170 nM, respectively.

Regarding `COc1cc2nc(C)nc(NC(C)c3ccc(-c4ccc(C(F)(F)F)cc4C)s3)c2cc1OC` (stereo not drawn) [Example 386, 6,7-di methoxy-2-methyl-N-(1-{5-[2-methyl-4-(trifluoromethyl)phenyl]-2-thienyl}ethyl)quinazolin-4-amine], the IC50 in assay [1] (setting [7]) stood at 10100 nM; in assay [2] (setting [8]), 8770 nM; in assay [3] (setting [9]), 3660 nM.

What is called inhibition is the share of the control response that was lost under treatment. In the case of `COc1cc2nc(C)nc(NC(C)c3cccs3)c2cc1OC` (stereo not drawn) [Example 347, 6,7-dimethoxy-2-methyl-N-[1-(thiophen-2-yl)ethyl]quinazolin-4-amine], the inhibition at 20 µM in assay [1] (no GTP) is 48%. In addition, the figures for the IC50 in assay [2] (setting [5]) and in assay [3] (setting [6]) were 15600 nM and 9050 nM, respectively.

In the case of `COc1ccc2oc(-c3cccc([C@@H](C)Nc4nc(C)nc5cc(OC)c(OC)cc45)c3)cc2c1` [Example 66, 6,7-dimethoxy-N-{(1R)-1-[3-(5-methoxy-1-benzofuran-2-yl)phenyl]ethyl}-2-methylquinazolin-4-amine], the IC50 in assay [1] (setting [4]) was found to be 6600 nM; in assay [2] (setting [5]) it was 3460 nM; in assay [3] (setting [6]) it was 4550 nM.

With `COc1cc2nc(C)nc(NC(C)c3ccc(-c4ccccc4CNCC(=O)Nc4ccccc4)s3)c2cc1OC` (stereo not drawn) [Example 289, 2-[2-(5-{1-[(6,7-dimethoxy-2-methylquinazolin-4-yl)amino]ethyl}thiophen-2-yl)benzyl]-N-phenylglycinamide], the results for the IC50 in assay [1] (setting [4]), in assay [2] (setting [5]) and in assay [3] (setting [6]) were 2730 nM, 2110 nM and 1180 nM, respectively.

Take `COc1cc2nc(C)nc(N[C@@H](C)c3ccc(/C=C/c4ccccc4)s3)c2cc1OC` (racemic) [Example 175, 6,7-dimethoxy-2-methyl-N-[1-{5-[(E)-2-phenylethenyl]thiophen-2-yl}ethyl]quinazolin-4-amine]: the inhibition at 20 µM worked out at 44% in assay [1] (no GTP) and 50% in assay [3] (high GTP). In addition, the IC50 in assay [2] (setting [5]) turned out to be 17600 nM.

For `COc1cc2nc(C)nc(N[C@H](C)c3cccc(-c4cccc(-c5nnc(C)o5)c4)c3)c2cc1OC` [Example 55, 6,7-dimethoxy-2-methyl-N-{(1R)-1-[3′-(5-methyl-1,3,4-oxadiazol-2-yl)biphenyl-3-yl]ethyl}quinazolin-4-amine], the IC50 was 724 nM in assay [1] (setting [4]), 674 nM in assay [2] (setting [5]) and 629 nM in assay [3] (setting [6]).

For `COc1cc(F)cc(-c2ccc([C@H](C)Nc3nc(C)nc4cc(OC)c(OC)cc34)s2)c1` (stereo in doubt) [Example 134, N-{1-[5-(3-fluoro-5-methoxyphenyl)thiophen-2-yl]ethyl}-6,7-dimethoxy-2-methylquinazolin-4-amine], the figures for the inhibition at 20 µM in assay [1] (no GTP), in assay [2] and in assay [3] (high GTP) were 27%, 43% and 23%, respectively.

With `COc1cc2nc(C)nc(N[C@H](C)c3cccc(-c4cncnc4)c3)c2cc1OC` [Example 37, 6,7-dimethoxy-2-methyl-N-{(1R)-1-[3-(pyrimidin-5-yl)phenyl]ethyl}quinazolin-4-amine], the IC50 in assay [1] (setting [4]) turned out to be 2690 nM; in assay [2] (setting [5]), 1540 nM; in assay [3] (setting [6]), 1850 nM.

For `COc1cc2nc(C)nc(N[C@H](C)c3cccc(-c4cccc(S(N)(=O)=O)c4)c3)c2cc1OC` [Example 61, 3′-{(1R)-1-[(6,7-dimethoxy-2-methylquinazolin-4-yl)amino]ethyl}biphenyl-3-sulfonamide], the values for the IC50 in assay [1] (setting [4]), in assay [2] (setting [5]) and in assay [3] (setting [6]) were 895 nM, 374 nM and 717 nM, respectively.

Consider `CCCNC(=O)c1ccc(-c2cccc([C@@H](C)Nc3nc(C)nc4cc(OC)c(OC)cc34)c2)cc1` [Example 73, 3′-{(1R)-1-[(6,7-dimethoxy-2-methylquinazolin-4-yl)amino]ethyl}-N-propylbiphenyl-4-carboxamide], for which the half-inhibitory concentration (IC50) was 495 nM in assay [1] (setting [4]), 427 nM in assay [2] (setting [5]) and 554 nM in assay [3] (setting [6]).

On to `COc1cc2nc(C)nc(N[C@H](C)c3cccc(-c4ccc5c(ccn5C)c4)c3)c2cc1OC` [Example 105, 6,7-dimethoxy-2-methyl-N-{(1R)-1-[3-{1-methyl-1H-indol-5-yl)phenyl]ethyl}quinazolin-4-amine], for which the results for the IC50 in assay [1] (setting [4]), in assay [2] (setting [5]) and in assay [3] (setting [6]) were 2770 nM, 2400 nM and 1390 nM, respectively.

As for `COc1cc2nc(C)nc(N[C@H](C)c3cccc(-c4cccc(/C=C/C#N)c4)c3)c2cc1OC` [Example 93, (2E)-3-(3′-{(1R)-1-[(6,7-dimethoxy-2-methylquinazolin-4-yl)amino]ethyl}biphenyl-3-yl)prop-2-enenitrile], the half-inhibitory concentration (IC50) in assay [1] (setting [4]) came to 2890 nM; in assay [2] (setting [5]), 1850 nM; in assay [3] (setting [6]), 1580 nM.

As to `COc1cc2nc(C)nc(NC(C)c3ccc(-c4ccccc4)o3)c2cc1OC` (single isomer, unassigned) [Example 224, 6,7-dimethoxy-2-methyl-N-[1-(5-phenylfuran-2-yl)ethyl]quinazolin-4-amine, enantiomer], the figures for the IC50 in assay [1] (setting [4]), in assay [2] (setting [5]) and in assay [3] (setting [6]) were 9370 nM, 3600 nM and 2550 nM, respectively.

For `COc1cc(F)cc(-c2cccc([C@@H](C)Nc3nc(C)nc4cc(OC)c(OC)cc34)c2)c1` [Example 65, N-[(1R)-1-(3′-fluoro-5′-methoxybiphenyl-3-yl)ethyl]-6,7-dimethoxy-2-methylquinazolin-4-amine], the half-inhibitory concentration (IC50) in assay [1] (setting [4]) worked out at 13500 nM; in assay [2] (setting [5]), 5760 nM; in assay [3] (setting [6]), 8340 nM.

Take `COc1cc2nc(C)nc(N[C@H](C)c3cccc(C4CC4(C)C)c3)c2cc1OC` (stereo partly drawn) [Example 58, N-{(1R)-1-[3-(2,2-dimethylcyclopropyl)phenyl]ethyl}-6,7-dimethoxy-2-methylquinazolin-4-amine]: the IC50 in assay [1] (setting [4]) stood at 3110 nM; in assay [2] (setting [5]) it was 1770 nM; in assay [3] (setting [6]), 1640 nM.

For `COc1cc2nc(C)nc(N[C@H](C)c3cccc(/C=C/Cc4ccccc4)c3)c2cc1OC` [Example 78, 6,7-dimethoxy-2-methyl-N-[(1R)-1-{3-[(1E)-3-phenylprop-1-en-1-yl]phenyl}ethyl]quinazolin-4-amine], the inhibition at 20 µM came out at 31% in assay [1] (no GTP) and 45% in assay [3] (high GTP). Also, the half-maximal inhibitory concentration (IC50) in assay [2] (setting [5]) amounted to 8550 nM.

Consider `COc1cc2nc(C)nc(N[C@@H](C)c3ccc(-c4cnc(N)nc4)s3)c2cc1OC` (racemic) [Example 131, N-{1-[5-(2-aminopyrimidin-5-yl)thiophen-2-yl]ethyl}-6,7-dimethoxy-2-methylquinazolin-4-amine], for which the IC50 in assay [1] (setting [4]) stood at 5940 nM; in assay [2] (setting [5]), 2230 nM; in assay [3] (setting [6]), 3370 nM.

As to `C/C=C/c1ccc([C@H](C)Nc2nc(C)nc3cc(OC)c(OC)cc23)s1` (racemic) [Example 177, 6,7-dimethoxy-2-methyl-N-[1-{5-[(1E)-prop-1-en-1-yl]thiophen-2-yl}ethyl]quinazolin-4-amine], in assay [1] (no GTP), the inhibition at 20 µM was 49%. The IC50 was found to be 5770 nM in assay [2] (setting [5]) and 6700 nM in assay [3] (setting [6]).

Take `COc1cc2nc(C)nc(N[C@H](C)c3cccc(-c4ccc(OCc5ccccc5)cc4)c3)c2cc1OC` [Example 97, N-{(1R)-1-[4′-(benzyloxy)biphenyl-3-yl]ethyl}-6,7-dimethoxy-2-methylquinazolin-4-amine]: the inhibition at 20 µM stood at 38% in assay [1] (no GTP), 39% in assay [2] and 28% in assay [3] (high GTP).

`COc1cc2nc(C)nc(N[C@@H](C)c3ccc(-c4cccc(S(N)(=O)=O)c4)s3)c2cc1OC` (racemic) [Example 130, 3-(5-{1-[(6,7-dimethoxy-2-methylquinazolin-4-yl)amino]ethyl}thiophen-2-yl)benzenesulfonamide]: the IC50 in assay [1] (setting [4]) stood at 11700 nM; in assay [2] (setting [5]), 3430 nM; in assay [3] (setting [6]), 4310 nM.

Consider `COc1cc2nc(C)nc(NC(C)c3ccc(-c4ccc(C(F)(F)F)cc4CN(C)C)s3)c2cc1OC` (stereo not drawn) [Example 385, N-(1-(5-(2-((dimethylamino)methyl)-4-(trifluoromethyl)phenyl)thiophen-2-yl)ethyl)-6,7-dimethoxy-2-methylquinazolin-4-amine], for which the IC50 was 388 nM in assay [1] (setting [7]), 732 nM in assay [2] (setting [8]) and 329 nM in assay [3] (setting [9]).

Take `CCCCOc1cccc(F)c1-c1cccc([C@@H](C)Nc2nc(C)nc3cc(OC)c(OC)cc23)c1` [Example 67, N-[(1R)-1-(2′-butoxy-6′-fluorobiphenyl-3-yl)ethyl]-6,7-dimethoxy-2-methylquinazolin-4-amine]: the inhibition at 20 µM in assay [1] (no GTP) worked out at 54%. The IC50 in assay [2] (setting [5]) is 9980 nM; in assay [3] (setting [6]), 19600 nM.

Regarding `COc1cc2nc(C)nc(NC(C)c3ccc(-c4ccc(Br)cc4CN(C)C)s3)c2cc1OC` (stereo not drawn) [Example 384, N-(1-(5-(4-bromo-2-((dimethylamino)methyl)phenyl)thiophen-2-yl)ethyl)-6,7-dimethoxy-2-methylquinazolin-4-amine], the values for the IC50 in assay [1] (setting [7]), in assay [2] (setting [8]) and in assay [3] (setting [9]) were 84.6 nM, 123 nM and 66.5 nM, respectively.

For the molecule `CCCOc1ccc(Cl)cc1-c1ccc([C@H](C)Nc2nc(C)nc3cc(OC)c(OC)cc23)s1` (stereo in doubt) [Example 144, N-{1-[5-(5-chloro-2-propoxyphenyl)thiophen-2-yl]ethyl}-6,7-dimethoxy-2-methylquinazolin-4-amine], the inhibition at 20 µM in assay [1] (no GTP) was found to be 19%; in assay [2] it was 30%; in assay [3] (high GTP), 12%.
